Reference: patent publication US10822352B2, “Aryl, heteroaryl, and heterocyclic compounds for treatment of medical disorders” (Achillion Pharmaceuticals, Inc., priority 2015, dated 2020)
Like-named read-outs stand apart in the source and are kept apart here.

Molecular target: Human Factor D (Homo sapiens (Human), UniProt P00746)
Assay: Human Factor D Assay
Format: biochemical
Procedure: Human Factor D (purified from human serum, Complement Technology, Inc.) at 80 nM final concentration was incubated with test compound at various concentrations for 5 minutes at room temperature in 50 mM Tris, 1M NaCl, pH 7.5. A synthetic substrate Z-L-Lys-SBzl and DTNB (Ellman's reagent) are added to final concentrations of 100 μM each. […] IC50 values are calculated by nonlinear regression of complement Factor D reaction rates as a function of test compound concentration.

[1] = Human Factor D 80 nM, substrate Z-L-Lys-SBzl, Table 3, read-out: IC5 (Stars)
[2] = Human Factor D 80 nM, substrate Z-L-Lys-SBzl, star classes, read-out: IC50

Human Factor D, sequence (P00746 26-253): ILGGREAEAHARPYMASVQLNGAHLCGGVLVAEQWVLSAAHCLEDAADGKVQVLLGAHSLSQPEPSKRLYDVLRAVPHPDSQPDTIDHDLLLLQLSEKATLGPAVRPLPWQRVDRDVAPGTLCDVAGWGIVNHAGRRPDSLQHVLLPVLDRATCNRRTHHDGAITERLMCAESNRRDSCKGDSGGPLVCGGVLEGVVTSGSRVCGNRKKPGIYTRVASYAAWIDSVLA

CC(=O)c1nn(CC(=O)N2C[C@H](F)C[C@H]2C(=O)NC2CCN(C(=O)c3cn[nH]c3)CC2)c2ccc(-c3cnc(C)nc3)cc12 [Compound 261, (2S,4R)-N-(1-(1H-pyrazole-4-carbonyl)piperidin-4-yl)-1-(2-(3-acetyl-5-(2-methylpyrimidin-5-yl)-1H-indazol-1-yl)acetyl)-4-fluoropyrrolidine-2-carboxamide]
IC50 (read-out: IC50): < 1000 nM

Cc1cccc(NC(=O)[C@@H]2[C@H]3CC[C@H](C3)N2C(=O)Cn2cc(C(N)=O)c3cc(-c4ccc(F)nc4)ccc32)n1 [Compound 500, 5-(6-Fluoropyridin-3-yl)-1-(2-((1R,3S,4S)-3-(6-methylpyridin-2-ylcarbamoyl)-2-azabicyclo[2.2.1]heptan-2-yl)-2-oxoethyl)-1H-indole-3-carboxamide]
IC50 [1]: > 10000 nM

Cc1cccc(C[C@H](O)[C@@H]2C[C@@H](F)CN2C(=O)Cn2cc(C(N)=O)c3cc(-c4cnc(C)nc4)ccc32)n1 [Compound 455, 1-(2-((2S,4R)-4-fluoro-2-((S)-1-hydroxy-2-(6-methylpyridin-2-yl)ethyl)pyrrolidin-1-yl)-2-oxoethyl)-5-(2-methylpyrimidin-5-yl)-1H-indole-3-carboxamide]
IC50 [1]: > 10000 nM

CC(=O)c1nn(CC(=O)N2C[C@H](F)C[C@H]2C(=O)Nc2cccc(Br)n2)c2ccc(-c3cnc(S(C)(=N)=O)nc3)cc12 (stereo partly drawn) [Compound 732, (2S,4R)-1-(2-(3-Acetyl-5-(2-(S-methylsulfonimidoyl)pyrimidin-5-yl)-1H-indazol-1-yl)acetyl)-N-(6-bromopyridin-2-yl)-4-fluoropyrrolidine-2-carboxamide]
IC50 [2]: < 1000 nM

CC(=O)c1nn(CC(=O)N2C[C@H](F)C[C@@H]2C(=O)Nc2nc(Br)ccc2C(=O)O)c2ccc(-c3cnc(C)nc3)cc12 [Compound 648, 2-((2R,4R)-1-(2-(3-Acetyl-5-(2-methylpyrimidin-5-yl)-1H-indazol-1-yl)acetyl)-4-fluoropyrrolidine-2-carboxamido)-6-bromonicotinic acid]
IC50: 1000 to 10000 nM

Cc1ncc(-c2ccc3c(c2)c([C@H](C)O)nn3CC(=O)N2[C@@H]3C[C@@H]3C[C@H]2C(=O)Nc2cccc(Br)n2)cn1 [Compound 409, (1R,3S,5R)—N-(6-Bromopyridin-2-yl)-2-(2-(3-((S)-1-hydroxyethyl)-5-(2-methylpyrimidin-5-yl)-1H-indazol-1-yl)acetyl)-2-azabicyclo[3.1.0]hexane-3-carboxamide]
IC50 [1]: < 1000 nM

CC(=O)c1nn(CC(=O)N2[C@H]3CC[C@H](CC3)[C@H]2C(=O)Nc2cccc(Br)n2)c2ccc(-c3cnc(C)nc3)cc12 [Compound 734, (1R,3S,4R)-2-(2-(3-Acetyl-5-(2-methylpyrimidin-5-yl)-1H-indazol-1-yl)acetyl)-N-(6-bromopyridin-2-yl)-2-azabicyclo[2.2.2]octane-3-carboxamide]
IC50 [2]: < 1000 nM

NC(=O)c1nn(CC(=O)N2CCC[C@]2(F)C(=O)Nc2cccnc2)c2ccc(-c3ccnnc3)cc12 [Compound 47, 1-(2-((2S,4R)-2-fluoro-2-(pyridin-3-ylcarbamoyl)pyrroli-din-1-yl)-2-oxoethyl)-5-(pyridazin-4-yl)-1H-indazole-3-carboxamide]
IC50 (Human Factor D 80 nM, substrate Z-L-Lys-SBzl, read-out: IC50): > 10000 nM

Cc1cccc(NC(=O)[C@@H]2[C@H]3CC[C@H](C3)N2C(=O)Cn2cc(C(N)=O)c3cc(-c4n[nH]c5ccsc45)ccc32)n1 [Compound 704, 1-(2-((1R,3S,4S)-3-(6-Methylpyridin-2-ylcarbamoyl)-2-azabicyclo[2.2.1]heptan-2-yl)-2-oxoethyl)-5-(1H-thieno[3,2-c]pyrazol-3-yl)-1H-indole-3-carboxamide]
IC50 [2]: > 10000 nM

CC(=O)c1nn(CC(=O)N2C[C@@H](C)C[C@H]2C(=O)Nc2nc(Br)ccc2C)c2ccc(-c3cnc(C)nc3)cc12 [Compound 643, (2S,4S)-1-(2-(3-Acetyl-5-(2-methylpyrimidin-5-yl)-1H-indazol-1-yl)acetyl)-N-(6-bromo-3-methylpyridin-2-yl)-4-methylpyrrolidine-2-carboxamide]
IC50 [2]: < 1000 nM

COc1ccc(N2C[C@@H]3CC[C@H]2C=C3c2ccc3c(c2)c(C(C)=O)nn3CC(=O)N2C[C@H](F)C[C@H]2C(=O)Nc2cccc(Br)n2)cc1 [Compound 721, (2S,4R)-1-(2-(3-Acetyl-5-((1S,4R)-2-(4-methoxyphenyl)-2-azabicyclo[2.2.2]oct-5-en-5-yl)-1H-indazol-1-yl)acetyl)-N-(6-bromopyridin-2-yl)-4-fluoropyrrolidine-2-carboxamide]
IC50 [2]: < 1000 nM

CC(=O)c1cn(CC(=O)N2C[C@H](F)C[C@H]2C(=O)NCc2ccncc2)c2ccc(-c3ccnnc3)cc12 [Compound 40, (2S,4R)-1-(2-(3-acetyl-5-(pyridazin-4-yl)-1H-indol-1-yl)acetyl)-4-fluoro-N-(pyridin-4-ylmethyl)pyrrolidine-2-carboxamide]
IC50: 1000 to 10000 nM

CC(=O)c1nn(CC(=O)N2C[C@H](F)C[C@H]2C(=O)Nc2cccc(Br)n2)c2ccc(-c3nc4c(s3)CCCC4)cc12 [Compound 297]
IC50 (Human Factor D, assay of Example 8, read-out: IC50): < 1000 nM
